# Structures can show the parent of a compound that is named as a salt.
# Key:
# [1] = prior-art filing; cited from earlier work
# [2] = tested on: Pr. morganii, Ent. cloacae and Ser. marcescens (Gn-II); experiment: In vitro antibacterial activity, two-fold agar dilution, Mueller-Hinton agar (Table 1), group Gn-II; format: cell-based, Pr. morganii (1), Ent. cloacae (2) and Ser. marcescens (2); conditions: read-out: Geometric Mean of MIC
# B. fragilis A21900 = experiment: MIC against selected test organisms (Table 2); format: cell-based; conditions: Bacteroides fragilis, A21900; Anaerobe, CET-S; read-out: Minimum Inhibitory Concentration
# P. morganii A9553 = experiment: MIC against selected test organisms (Table 2); format: cell-based; conditions: Morganella morganii, A9553; Gn-II, CET-R; read-out: Minimum Inhibitory Concentration
# E. coli Juhl [3] = experiment: MIC against selected test organisms (Table 2); format: cell-based; conditions: Escherichia coli; Gn-Ia, CET-S; read-out: Minimum Inhibitory Concentration
# B. fragilis A22695 = experiment: MIC against selected test organisms (Table 2); format: cell-based; conditions: Bacteroides fragilis, A22695; Anaerobe, AMP-R; read-out: Minimum Inhibitory Concentration
# K. pneumoniae A 9867 = experiment: MIC against selected test organisms (Table 2); format: cell-based; conditions: Klebsiella pneumoniae, A9867; Gn-Ib, CET-R; read-out: Minimum Inhibitory Concentration
# [4] = tested on: Penicillin-resistant S. aureus (Gp-Ib); experiment: In vitro antibacterial activity, two-fold agar dilution, Mueller-Hinton agar (Table 1), group Gp-Ib; format: cell-based; conditions: Staphylococcus aureus; read-out: Geometric Mean of MIC
# S. aureus A15092 = experiment: MIC against selected test organisms (Table 2); format: cell-based; conditions: Staphylococcus aureus, Gp-Ib, PC-R, read-out: Minimum Inhibitory Concentration
# P. aeruginosa A9843 [5] = experiment: MIC against selected test organisms (Table 2); format: cell-based; conditions: Pseudomonas aeruginosa, A9843; Gn-III, CET-R; read-out: Minimum Inhibitory Concentration
# K. pneumoniae D11 = experiment: MIC against selected test organisms (Table 2); format: cell-based; conditions: Klebsiella pneumoniae, D11; Gn-Ia, CET-S; read-out: Minimum Inhibitory Concentration
# P. aeruginosa A20717 = experiment: MIC against selected test organisms (Table 2); format: cell-based; conditions: Pseudomonas aeruginosa, A20717; Gn-III, CET-R; read-out: Minimum Inhibitory Concentration
# S. aureus Smith [6] = experiment: MIC against selected test organisms (Table 2); format: cell-based; conditions: Staphylococcus aureus; Gp-Ia, PC-S; read-out: Minimum Inhibitory Concentration
# B. fragilis A22533 = experiment: MIC against selected test organisms (Table 2); format: cell-based; conditions: Bacteroides fragilis, A22533; Anaerobe, AMP-R; read-out: Minimum Inhibitory Concentration
# [7] = tested on: Penicillin-sensitive S. aureus (Gp-Ia); experiment: In vitro antibacterial activity, two-fold agar dilution, Mueller-Hinton agar (Table 1), group Gp-Ia; format: cell-based; conditions: Staphylococcus aureus; read-out: Geometric Mean of MIC
# P. acnes A21933 = experiment: MIC against selected test organisms (Table 2); format: cell-based; conditions: Cutibacterium acnes, A21933; Anaerobe, CLDM-R; read-out: Minimum Inhibitory Concentration
# [8] = tested on: Cephalothin-resistant E. coli and Kl. pneumoniae (Gn-Ib); experiment: In vitro antibacterial activity, two-fold agar dilution, Mueller-Hinton agar (Table 1), group Gn-Ib; format: cell-based, E. coli (3) and Kl. pneumoniae (3); conditions: Escherichia coli, read-out: Geometric Mean of MIC
# P. aeruginosa A9843 [9] = experiment: Therapeutic efficacy in experimentally infected mice (Table 5); format: in vivo; conditions: Pseudomonas aeruginosa, A9843, im, 120 h; i.m., immediately after intraperitoneal challenge, 5 days observation; read-out: PD50 (median protective dose)
# Method: (§1) The test compounds were administered intramuscularly immediately after the bacterial challenge.
# S. aureus Smith [10] = experiment: as above; format: in vivo; conditions: Staphylococcus aureus, im, 120 h; i.m., immediately after intraperitoneal challenge, 5 days observation; read-out: PD50 (median protective dose)
# Method: as §1
# E. coli Juhl [11] = experiment: as above; format: in vivo; conditions: Escherichia coli, im, 120 h; i.m., immediately after intraperitoneal challenge, 5 days observation; read-out: PD50 (median protective dose)
# Method: as §1
# P. aeruginosa A15150 = experiment: MIC against selected test organisms (Table 2); format: cell-based; conditions: Pseudomonas aeruginosa, A15150; Gn-III, CET-R; read-out: Minimum Inhibitory Concentration
# C. difficile A21675 = experiment: MIC against selected test organisms (Table 2); format: cell-based; conditions: Clostridioides difficile, A21675; Anaerobe, CLDM-R; read-out: Minimum Inhibitory Concentration
# E. cloacae A9656 = experiment: MIC against selected test organisms (Table 2); format: cell-based; conditions: Enterobacter cloacae, Gn-II, CET-R, read-out: Minimum Inhibitory Concentration
# B. fragilis A22021 = experiment: MIC against selected test organisms (Table 2); format: cell-based; conditions: Bacteroides fragilis, A22021; Anaerobe, CET-R; read-out: Minimum Inhibitory Concentration
# C. perfringens A9635 = experiment: microbe, parasite or virus in culture; format: cell-based; conditions: Clostridium perfringens, A9635, read-out: Minimum Inhibitory Concentration
# E. coli A15148 = experiment: MIC against selected test organisms (Table 2); format: cell-based; conditions: Escherichia coli, A15148; Gn-Ib, CET-R; read-out: Minimum Inhibitory Concentration
# B. fragilis A22693 = experiment: MIC against selected test organisms (Table 2); format: cell-based; conditions: Bacteroides fragilis, A22693; Anaerobe, CET-R; read-out: Minimum Inhibitory Concentration
# B. fragilis A20928-1 = experiment: MIC against selected test organisms (Table 2); format: cell-based; conditions: Bacteroides fragilis, A209281; Anaerobe, CET-S; read-out: Minimum Inhibitory Concentration
# S. marcescens A20019 = experiment: MIC against selected test organisms (Table 2); format: cell-based; conditions: Serratia marcescens, A20019; Gn-II, CET-R; read-out: Minimum Inhibitory Concentration
# [12] = tested on: Cephalothin-sensitive E. coli, Kl. pneumoniae and Pr. mirabilis (Gn-Ia); experiment: In vitro antibacterial activity, two-fold agar dilution, Mueller-Hinton agar (Table 1), group Gn-Ia; format: cell-based; conditions: read-out: Geometric Mean of MIC
# Ps. aeruginosa (Gn-III) = experiment: In vitro antibacterial activity, two-fold agar dilution, Mueller-Hinton agar (Table 1), group Gn-III; format: cell-based; conditions: Pseudomonas aeruginosa; read-out: Geometric Mean of MIC
# S. aureus A9497 = experiment: MIC against selected test organisms (Table 2); format: cell-based; conditions: Staphylococcus aureus, Gp-Ia, PC-S, read-out: Minimum Inhibitory Concentration
# S. aureus BX-1633 = experiment: MIC against selected test organisms (Table 2); format: cell-based; conditions: Staphylococcus aureus, BX1633; Gp-Ib, PC-R; read-out: Minimum Inhibitory Concentration
# P. mirabilis A9554 = experiment: MIC against selected test organisms (Table 2); format: cell-based; conditions: Proteus mirabilis, A9554; Gn-Ia, CET-S; read-out: Minimum Inhibitory Concentration
compound,measurement,setting,value
CC(C)(O/N=C(\C(=O)N[C@@H]1C(=O)N2C(C(=O)[O-])=C(C[n+]3ccccc3)CS[C@H]12)c1csc(N)n1)C(=O)O [bishydrochloride of ceftazidime],storage stability,[1],good storage stability
"CSc1ccc[n+](CC2=C(C(=O)[O-])N3C(=O)C(NC(=O)/C(=N\OC(C)(C)C(=O)O)c4csc(N)n4)C3SC2)c1 (stereo not shown) [Example 1, 7-[(Z)-2-(2-Aminothiazol-4-yl)-2-(2-carboxyprop-2-oxyimino)acetamido]-3-[(3-methylthiopyridinium)methyl]-3-cephem-4-carboxylate]",MIC,[2],2.8 µg/mL
same,MIC,B. fragilis A21900,6.3 µg/mL
same,MIC,P. morganii A9553,1.6 µg/mL
same,MIC,E. coli Juhl [3],0.2 µg/mL
same,MIC,B. fragilis A22695,50 µg/mL
same,MIC,K. pneumoniae A 9867,3.1 µg/mL
same,MIC,[4],12.5 µg/mL
same,MIC,S. aureus A15092,12.5 µg/mL
same,MIC,P. aeruginosa A9843 [5],3.1 µg/mL
same,MIC,K. pneumoniae D11,0.4 µg/mL
same,MIC,P. aeruginosa A20717,12.5 µg/mL
same,MIC,S. aureus Smith [6],6.3 µg/mL
same,MIC,B. fragilis A22533,> 100 µg/mL
same,MIC,[7],4.7 µg/mL
same,MIC,P. acnes A21933,1.6 µg/mL
same,MIC,[8],1.1 µg/mL
same,ED50,P. aeruginosa A9843 [9],12 mg/kg
same,ED50,S. aureus Smith [10],6 mg/kg
same,ED50,E. coli Juhl [11],0.46 mg/kg
same,MIC,P. aeruginosa A15150,1.6 µg/mL
same,MIC,C. difficile A21675,> 100 µg/mL
same,MIC,E. cloacae A9656,0.4 µg/mL
same,MIC,B. fragilis A22021,25 µg/mL
same,MIC,C. perfringens A9635,25 µg/mL
same,MIC,E. coli A15148,0.4 µg/mL
same,MIC,B. fragilis A22693,25 µg/mL
same,MIC,B. fragilis A20928-1,6.3 µg/mL
same,MIC,S. marcescens A20019,0.2 µg/mL
same,MIC,[12],0.11 µg/mL
same,MIC,Ps. aeruginosa (Gn-III),3.5 µg/mL
same,MIC,S. aureus A9497,3.1 µg/mL
same,MIC,S. aureus BX-1633,12.5 µg/mL
same,MIC,P. mirabilis A9554,0.1 µg/mL

# Source: patent US4394503A, “Cephalosporin derivatives” (priority 1981, dated 1983)
